Data from PMC3384522 (Bioconjugate Chemistry, 2011).

Assays:
Assay type in all cases: binding
[1] = target: T1, Bacillus anthracis DHPS (BaDHPS) (Bacillus anthracis, UniProt Q81VW8)
BSA = BSA (Bos taurus, UniProt P02769); experiment: Incubation of probe in 1% BSA monitored by FP; details: FP absorbance significantly reduced
[2] = target: T1, Bacillus anthracis DHPS (BaDHPS); remark: listed apart in the source

T1 sequence (Q81VW8 1-280): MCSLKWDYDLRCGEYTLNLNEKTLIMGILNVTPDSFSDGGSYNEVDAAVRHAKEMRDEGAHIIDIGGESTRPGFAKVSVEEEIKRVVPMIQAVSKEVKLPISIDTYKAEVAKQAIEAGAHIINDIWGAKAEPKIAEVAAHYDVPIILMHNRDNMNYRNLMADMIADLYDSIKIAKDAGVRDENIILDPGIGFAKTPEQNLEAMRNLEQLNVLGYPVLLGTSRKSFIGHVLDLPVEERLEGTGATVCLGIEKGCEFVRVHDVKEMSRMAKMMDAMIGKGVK
Sequence of BSA (P02769 25-607): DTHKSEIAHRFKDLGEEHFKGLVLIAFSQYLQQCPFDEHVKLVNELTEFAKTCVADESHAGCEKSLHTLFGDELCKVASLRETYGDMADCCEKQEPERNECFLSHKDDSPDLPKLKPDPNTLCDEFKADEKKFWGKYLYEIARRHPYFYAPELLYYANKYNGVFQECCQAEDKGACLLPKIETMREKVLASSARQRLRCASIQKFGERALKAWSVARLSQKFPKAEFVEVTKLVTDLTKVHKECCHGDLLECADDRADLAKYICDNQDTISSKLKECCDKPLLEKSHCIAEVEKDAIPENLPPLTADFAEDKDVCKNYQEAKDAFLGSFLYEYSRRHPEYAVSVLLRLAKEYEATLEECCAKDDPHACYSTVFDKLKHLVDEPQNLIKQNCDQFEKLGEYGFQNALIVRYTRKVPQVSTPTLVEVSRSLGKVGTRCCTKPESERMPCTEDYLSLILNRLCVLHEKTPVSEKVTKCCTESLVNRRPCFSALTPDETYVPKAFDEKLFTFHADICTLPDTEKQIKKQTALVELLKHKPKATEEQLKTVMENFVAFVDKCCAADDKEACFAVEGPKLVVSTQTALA

Q: How did the “Competitive displacement of FP probe 4 from BaDHPS” value (from here on “Competitive displacement”) [1] turn out when `Nc1nc2ncc(CNc3ccc(C(=O)O)cc3)nc2c(=O)[nH]1` [pteroic acid] was run?
A: able to compete off the FP probe 4

Q: Which “Competitive displacement” value [1] does the source give for `Cc1cc(NS(=O)(=O)c2ccc(N)cc2)no1` [SMX, sulfamethoxazole] here?
A: not able to compete off the FP probe 4

Q: How did the “Competitive displacement” value [1] turn out when `Nc1ccc(S(N)(=O)=O)cc1` [SIA, sulfanilamide] was run?
A: not able to compete off the FP probe 4

Q: How did the “Non-specific protein binding (FP in 1% BSA)” value (BSA) turn out when `Nc1nc(NCCOCCOCCNC(=O)c2ccc3c(c2)C(=O)OC32c3ccc(O)cc3Oc3cc(O)ccc32)c(N=O)c(=O)[nH]1` [compound 3] was run?
A: non-specific protein binder

Q: And the “Binding site N (ITC)” value [2]?
A: 1.59 ± 0.0108

Q: And the “ΔH (ITC)” value [2]?
A: -5.9 ± 0.059 kcal/mol

Q: What does the source list for `CC(C(=O)NCCOCCOCCNC(=O)c1ccc2c(c1)C(=O)OC21c2ccc(O)cc2Oc2cc(O)ccc21)c1nn(C)c2nc(N)[nH]c(=O)c2c1=O` (centres unmarked) [compound 4, N-(2-(2-(2-(2-(7-Amino-1-methyl-4,5-dioxo-1,4,5,6-tetrahydropyridazino[3,4-d]pyrimidin-3-yl)propanamido)ethoxy)ethoxy)ethyl)-3',6'-dihydroxy-3-oxo-3H-spiro[isobenzofuran-1,9'-xanthene]-5-carboxamide]?
A: Binding site N (ITC) [2]: 1.09 ± 0.0464; ΔH (ITC) [2]: -2.8 ± 0.159 kcal/mol
